Tests used:
Details in all cases: 72 h
U2OS [1] = experiment: cell viability relative to DMSO; higher = less toxic
Caco-2 [2] = experiment: as above
HepG2 [3] = experiment: as above
Calu-3 [4] = experiment: as above
Vero E6 [5] = experiment: as above
U2OS [6] = experiment: drug sensitivity score (DSS) for viability; higher = more toxic; extreme values may be limits of the assay
Caco-2 [7] = experiment: as above
HepG2 [8] = experiment: as above
Calu-3 [9] = experiment: as above
Vero E6 [10] = experiment: as above
U2OS [11] = experiment: relative viability EC50 (midpoint between 100% and the lowest measured viability); higher = less toxic
Caco-2 [12] = experiment: as above
HepG2 [13] = experiment: as above
Calu-3 [14] = experiment: as above
Vero E6 [15] = experiment: as above

| Structure (SMILES) | cell viability (U2OS [1]; 1 nM) [%] | cell viability (U2OS [1]; 10 nM) [%] | cell viability (U2OS [1]; 100 nM) [%] | cell viability (U2OS [1]; 1000 nM) [%] | cell viability (U2OS [1]; 10000 nM) [%] | cell viability (Caco-2 [2]; 1 nM) [%] | cell viability (Caco-2 [2]; 10 nM) [%] | cell viability (Caco-2 [2]; 100 nM) [%] | cell viability (Caco-2 [2]; 1000 nM) [%] | cell viability (Caco-2 [2]; 10000 nM) [%] | cell viability (HepG2 [3]; 1 nM) [%] | cell viability (HepG2 [3]; 10 nM) [%] | cell viability (HepG2 [3]; 100 nM) [%] | cell viability (HepG2 [3]; 1000 nM) [%] | cell viability (HepG2 [3]; 10000 nM) [%] | cell viability (Calu-3 [4]; 1 nM) [%] | cell viability (Calu-3 [4]; 10 nM) [%] | cell viability (Calu-3 [4]; 100 nM) [%] | cell viability (Calu-3 [4]; 1000 nM) [%] | cell viability (Calu-3 [4]; 10000 nM) [%] | cell viability (Vero E6 [5]; 1 nM) [%] | cell viability (Vero E6 [5]; 10 nM) [%] | cell viability (Vero E6 [5]; 100 nM) [%] | cell viability (Vero E6 [5]; 1000 nM) [%] | cell viability (Vero E6 [5]; 10000 nM) [%] | drug sensitivity score (U2OS [6]) | drug sensitivity score (Caco-2 [7]) | drug sensitivity score (HepG2 [8]) | drug sensitivity score (Calu-3 [9]) | drug sensitivity score (Vero E6 [10]) | relative viability EC50 (U2OS [11]) [µM] | relative viability EC50 (Caco-2 [12]) [µM] | relative viability EC50 (HepG2 [13]) [µM] | relative viability EC50 (Calu-3 [14]) [µM] | relative viability EC50 (Vero E6 [15]) [µM] |
| --- | --- | --- | --- | --- | --- | --- | --- | --- | --- | --- | --- | --- | --- | --- | --- | --- | --- | --- | --- | --- | --- | --- | --- | --- | --- | --- | --- | --- | --- | --- | --- | --- | --- | --- | --- |
| NC1=NCC2c3ccccc3Cc3ccccc3N12 (stereo not given) [epinastine] | 97 | 102 | 91.7 | 92.8 | 98.6 | 91.6 | 87.4 | 95 | 98.9 | 93.3 | 97.3 | 102 | 105 | 99.1 | 102 | 99.3 | 103 | 98.2 | 98 | 92 | 98.6 | 105 | 99.7 | 96 | 99.5 | 0 | 0 | 0 | 0 | 0 | > 10 | > 10 | > 10 | > 10 | > 10 |
| C#CCC(Cc1cnc2nc(N)nc(N)c2n1)c1ccc(C(=O)N[C@@H](CCC(=O)O)C(=O)O)cc1 (stereo not given in full) [pralatrexate] | 105 | 76.8 | 97.2 | 90 | 98.6 | 97 | 81.8 | 55.3 | 49.6 | 56.2 | 99.2 | 22.9 | 21.3 | 17.8 | 17.1 | 107 | 102 | 91.4 | 88.2 | 93.6 | 98.9 | 19.2 | 14.4 | 16.7 | 14.2 | 0 | 16.7 | 35.4 | 0.8 | 36.7 | > 10 | 0.0164 | 0.0038 | > 10 | 0.0036 |
| Fc1ccc(C(c2ccccc2)(c2ccccc2F)n2ccnc2)cc1 (stereo not given) [flutrimazole] | 108 | 107 | 107 | 102 | 97.1 | 122 | 112 | 96.1 | 98.9 | 80.5 | 106 | 110 | 95.7 | 96.5 | 97.7 | 102 | 92 | 107 | 90.4 | 106 | 97 | 102 | 108 | 118 | 99.2 | 0 | 0.7 | 0 | 0 | 0 | > 10 | > 10 | > 10 | > 10 | > 10 |

From the supplement of paper PMC13380429
